These results are taken from patent US11072634B2, “Inhibitors of transglutaminases” (Zedira GmbH, priority 2016, dated 2021).

The structures appear in SMILES notation. Bounds are passed on as bounds.

The test system of series [1] is CaCo2 and Huh7 cells. As to the kind of experiment: Cytotoxicity of transglutaminase inhibitors (BrdU and EZ4U). The note with it: highest concentration measured 1 mM. It counts as cell-based, human. The protocol:
The following cell lines are used for determination of cytotoxicity: • CaCo2 (human colon carcinoma cell line) • Huh7 (human liver carcinoma cell line).
Cells are cultivated in DMEM/10% FCS at 37° C. and 5% CO2 in a 96 well plate with an initial seeding density of 2×10^4 cells/well.
Transglutaminase inhibitors are added to the cells with final concentrations from 0.1 μM to 1 mM one hour after seeding. The different inhibitor dilutions are prepared in DMSO, resulting in a final concentration of 1% (v/v) DMSO in every well (2 μl inhibitor in 200 μl cell culture medium). Cycloheximide (2.5 μg/ml) and Camptothecin (0.2 μg/ml) are used as control compounds. All measurements are performed in triplicates.
Cytotoxicity of transglutaminase inhibitors is evaluated with two different assays:
Determination of proliferation using Cell Proliferation ELISA, BrdU (Roche, Cat. No. 11647229001).
After 24 h of incubation with inhibitors or controls, BrdU is added to the cells. After further incubation for 18 h, the cells are fixed and cellular DNA becomes denatured. […] Substrate solution is added and absorbance at 450 nm is recorded. […]
After 48 h of incubation with inhibitors or controls, the tetrazolium substrate is added to the cells. Substrate turnover by the cells is measured over two hours at 450 nm (using 630 nm was reference wavelength).

The target of series [2] is T1, TG2 (Homo sapiens, UniProt P21980).
T1 sequence (P21980 1-687): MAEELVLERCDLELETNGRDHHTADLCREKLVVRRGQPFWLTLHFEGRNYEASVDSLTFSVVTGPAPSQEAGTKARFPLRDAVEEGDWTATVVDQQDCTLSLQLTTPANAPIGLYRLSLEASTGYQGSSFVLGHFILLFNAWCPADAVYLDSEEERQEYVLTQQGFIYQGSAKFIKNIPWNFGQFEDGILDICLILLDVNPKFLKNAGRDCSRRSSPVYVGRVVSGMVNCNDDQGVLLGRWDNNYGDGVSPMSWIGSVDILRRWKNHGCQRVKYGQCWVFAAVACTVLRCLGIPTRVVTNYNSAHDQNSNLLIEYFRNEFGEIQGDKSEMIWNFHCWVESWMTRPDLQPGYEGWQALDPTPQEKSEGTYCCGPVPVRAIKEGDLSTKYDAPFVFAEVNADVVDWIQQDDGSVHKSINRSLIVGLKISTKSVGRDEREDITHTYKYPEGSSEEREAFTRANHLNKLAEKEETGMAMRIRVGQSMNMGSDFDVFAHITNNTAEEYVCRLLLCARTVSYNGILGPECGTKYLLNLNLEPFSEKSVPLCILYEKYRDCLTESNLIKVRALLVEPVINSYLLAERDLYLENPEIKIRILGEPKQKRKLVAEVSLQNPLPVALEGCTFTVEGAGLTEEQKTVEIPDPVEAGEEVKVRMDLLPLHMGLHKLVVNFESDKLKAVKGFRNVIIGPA
As to the kind of experiment: Transglutaminase activity of homogenates of LPS-stimulated BEAS-2B cells. It counts as cell-based. The following applies: 0-200 μM. As to the method:
A) Transglutaminase activity of homogenates from BEAS-2B-cell grown in the presence of 0-200 μM E22 and stimulated with LPS determined by TG2-selective Tissue Transglutaminase Pico-Assay Kit (#M003, Zedira, Darmstadt, Germany) according to the manufacturer's instructions.
(§1) Extracellular matrix deposition is a hallmark in pulmonary fibrosis. The BEAS-2B cell line is derived from normal human bronchial epithelium.
(§2) BEAS-2B cells were grown at 37° C. and 5% CO2 in 25 mM HEPES-buffered M199-medium (Merck, Darmstadt) containing 10% FBS, […], 2 mM glutamine, 100 U/ml penicillin (supplemented with […] apotransferrin, 20 ng/ml human epidermal growth factor (EGF), […] insulin, and 0.361 mg/ml hydrocortisone). For the induction of airway fibrosis by epithelial-to-mesenchymal transition (EMT), cells were seeded at 80% confluence on six-well plates. After one day cultivation 4 μg/mL LPS as well as 0 μM, 100 μM or 200 μM E22 were added and then incubated for further 72 h.

The subject of series [3] is BEAS-2B cells. As to the kind of experiment: Extracellular matrix protein deposition of LPS-stimulated BEAS-2B cells. The following applies: 0-200 μM. It counts as cell-based, human. The protocol: B) Extracellular matrix protein deposition of homogenates from BEAS-2B-cell grown in the presence of 0-200 μM E22 and stimulated with LPS measured by the DC-protein-assay (BioRad, #5000111).
as §1, §2

For series [4], the system named is Human hepatic stellate cell line LX-2. As to the kind of experiment: Extracellular matrix protein deposition of LX-2 cells. It counts as cell-based. The note with it: LX-2, 100 μM and 200 μM, 12 days. The protocol:
B) Extracellular matrix protein deposition of homogenates from LX-2-cells grown in standard plastic 6-well plates in the presence of 0-200 μM E22 measured by the DC-protein-assay (BioRad, #5000111).
(§3) Human hepatic stellate cell line LX-2 was cultured on standard plastic 6 well plates in Dulbecco's Modified Eagle's Medium containing 100 μg/mL streptomycin, 100 units/ml penicillin, 2 mM glutamine, and 10% (v/v) fetal calf serum. E22 was added to a concentration of 0 μM, 100 μM and 200 μM. Cells were grown at 37° C. and 5% CO2 humidified atmosphere. Medium was exchanged every two days.

For series [5], the target named is T1, TG2. As to the kind of experiment: Transglutaminase activity of homogenates of LX-2 cells. It counts as cell-based. The note with it: LX-2, 100 μM, 12 days; read-out: Transglutaminase activity, of the inhibitor free control. As to the method:
A) Transglutaminase activity of homogenates from LX-2-cells grown in standard plastic 6-well plates in the presence of 0-200 μM E22 determined by TG2-selective Tissue Transglutaminase Pico-Assay Kit (#M003, Zedira, Darmstadt, Germany) according to the manufacturer's instructions.
as §3

As for `COC(=O)[C@H](CC(C)C)NC(=O)[C@@H]1CCCN1C(=O)[C@@H](NC(=O)[C@H](CCC(=O)C(N)=O)NC(=O)OCc1ccccc1)C(C)C` [Compound E02, (S)-methyl 2-((S)-1-((S)-2-((S)-6-amino-2-(benzyloxycarbonylamino)-5,6-dioxo-hexanamido)-3-methylbutanoyl)pyrrolidine-2-carboxamido)-4-methylpentanoate], the “no influence on cell proliferation or metabolic activity up to” value in series [1] is greater than 1 mM.

For the compound `CCCCCNC(=O)C(=O)CC[C@H](NC(=O)[C@@H]1CCCN1C(C)=O)C(=O)Nc1cccn(CC(=O)NCC(CC)CC)c1=O` [Compound E22, (S)-2-((S)-1-acetylpyrrolidine-2-carboxamido)-N1-(1-(2-(2-ethylbutylamino)-2-oxoethyl)-2-oxo-1,2-dihydropyridin-3-yl)-5-oxo-N6-pentylhexanediamide], the Transglutaminase activity result in series [2] was “dose dependent reduction”. Further, the “deposition of ECM-proteins” value in series [3] is reported as “significantly reduced, also in a dose dependent manner”. The “extracellular matrix deposition, of control” value in series [4] is recorded as “about 30%”. The remaining activity at 100 µM in series [5] is less than 5%.
